# Results reported in patent publication US9726663B2, “Method of identifying or evaluating synergistic combinations of actives and compositions containing the same” (The Procter & Gamble Company, priority 2012, dated 2017).
# Key:
# [1] = test system: human, dermal fibroblasts (BJ cell line); assay: Extracellular acidification rate (glycolysis) of fibroblasts, XF Extracellular Flux Analyzer; format: cell-based
# Method: (§1) With regard to the fibroblasts discussed above in FIGS. 5A, 5B, SC, 5D, 5E, 6, 7A, 7B, 7C, 7D, 7E and 8 frozen, human dermal fibroblasts were obtained from the BJ cell line commercially available from ATCC, Bethesda, Md. The fibroblasts were grown to 70-80% confluence in a fibroblast culture medium of Eagle's Minimum Essential Medium (“EMEM”) supplemented with 10% fetal bovine serum (“FBS”) and gentamicin/amphotericin B ×500 solution (EMEM and FBS are available from ATCC and gentamicin/amphotericin B ×500 solution is available from Invitrogen). […] Each well included 100 μL of the fibroblast medium described above. A test medium was made from Dulbecco's Modified Eagle Medium (available from Seahorse Bioscience), 25 mM Glucose and 1 mM pyruvate. The test medium was warmed to 37° C. and the pH adjusted to 7.4. The cells were grown and plated at 37° C. and 5% CO2 air. The fibroblast medium in the wells was replaced by the test medium 1 hour prior to taking measurements. Oxygen consumption rate and extracellular acidification rate may be detected using an XF Extracellular Flux Analyzer or equivalent. The device should be capable of non-lethally and simultaneously detecting metabolic indicators of the oxphos and glycolysis pathways in a controlled environment, as well as providing […]. The cells may be provided in a multi-well plate suitable for use with the instrument (e.g., 24-well or 96 well plate) and washed prior to testing. The cells may be washed by any suitable means known in the art (e.g., using a Seahorse Biosciences XF prep station). It may be desirable to use a suitable prep station such as an XF prep station available from Seahorse Biosciences). When washing the cells, it may be desirable to remove the medium from the wells and wash the cells three times with a suitable amount of test medium (e.g., 180 μL in a 96-well plate or 600 μL in a 24-well plate). After washing the cells, a suitable amount (e.g., 180 μL) of an appropriate test medium is placed in each well, and the cells are equilibrated at 37° C. in a CO2-free incubator for 1-1.5 hours prior to taking placing the plate in the instrument for testing. Following the equilibration period, load the plate containing the cells into the instrument and equilibrate according to manufacturer's instructions. The entire test is conducted at 37° C. In some embodiments, the instrument may be to provide a three minute mix cycle, a two minute wait cycle, and a 3 minute measurement cycle for keratinocytes and a two minute mix cycle, two minute wait cycle, and 3 minute measurement cycle for fibroblasts. The cycles should be repeated for at least 88 minutes. It is to be appreciated that the cycles and times may be modified according to cell type and experiment design, as desired. The following example illustrates how the method herein can be used to identify synergistic combinations of skin care actives. Hydrogen peroxide is a well known ROS, and is used in this example to illustrate the undesirable metabolic effects associated with exposure of a cell to an oxidative stressor. The hydrogen peroxide was prepared at 10X working concentration in the fibroblast test medium described above. The test agents are niacinamide (also known as vitamin B3) and tocoquinone both commercially available from Sigma. The test agents were each prepared at 10× the final working concentration in the fibroblast test medium described above to provide a test agent solution. The stressor solution and the test agent solutions were both warmed to 37° C. and pH adjusted to 7.4. The cells are frozen, human, dermal fibroblasts obtained from ATCC (BJ cell line). The cells were cultured and prepared according to the test method described above. The fibroblasts were plated in Gelatin-coated, 96-well plate. Each well contained approximately 4×10^4 cells and 180 μL of fibroblast test medium (i.e., Seahorse Biosciences DMEM, 25 mM glucose and 1 mM pyruvate) at 37° C. and pH 7.4. […]
# [2] = test system: human, dermal fibroblasts (BJ cell line); assay: Oxygen consumption rate (oxidative phosphorylation) of fibroblasts, XF Extracellular Flux Analyzer; format: cell-based; parameters: Average OCR value per treatment group: unit not given here; conditions: for effect on reduction in OCR caused by hydrogen peroxide: in combination with 1.5 mM H2O2
# Method: as §1
# [3] = rate number 1, before addition of stressor/test agents (basal)
# [4] = rate number 2, before addition of stressor/test agents (basal)
# [5] = rate number 3, before addition of stressor/test agents (basal, reference)
# [6] = rate number 4, 1.5 mM hydrogen peroxide, 0.25 mM niacinamide, 0.025 mM tocoquinone
# [7] = rate number 5, 1.5 mM hydrogen peroxide, 0.25 mM niacinamide, 0.025 mM tocoquinone
# [8] = rate number 6, 1.5 mM hydrogen peroxide, 0.25 mM niacinamide, 0.025 mM tocoquinone
# [9] = rate number 7, 1.5 mM hydrogen peroxide, 0.25 mM niacinamide, 0.025 mM tocoquinone
# [10] = rate number 8, 1.5 mM hydrogen peroxide, 0.25 mM niacinamide, 0.025 mM tocoquinone
# [11] = rate number 9, 1.5 mM hydrogen peroxide, 0.25 mM niacinamide, 0.025 mM tocoquinone
# [12] = rate number 10, 1.5 mM hydrogen peroxide, 0.25 mM niacinamide, 0.025 mM tocoquinone
# [13] = rate number 11, 1.5 mM hydrogen peroxide, 0.25 mM niacinamide, 0.025 mM tocoquinone
# [14] = rate number 12, 1.5 mM hydrogen peroxide, 0.25 mM niacinamide, 0.025 mM tocoquinone
# [15] = rate number 13, 1.5 mM hydrogen peroxide, 0.25 mM niacinamide, 0.025 mM tocoquinone
# [16] = rate number 14, 1.5 mM hydrogen peroxide, 0.25 mM niacinamide, 0.025 mM tocoquinone
# [17] = rate number 15, 1.5 mM hydrogen peroxide, 0.25 mM niacinamide, 0.025 mM tocoquinone
# [18] = rate number 16, 1.5 mM hydrogen peroxide, 0.25 mM niacinamide, 0.025 mM tocoquinone
# [19] = rate number 17, 1.5 mM hydrogen peroxide, 0.25 mM niacinamide, 0.025 mM tocoquinone
# [20] = rate number 18, 1.5 mM hydrogen peroxide, 0.25 mM niacinamide, 0.025 mM tocoquinone
# [21] = 0.25 mM niacinamide, 0.025 mM tocoquinone
Compound,"Average ECAR value per treatment group [1, 3]","Average ECAR value per treatment group [1, 4]","Average ECAR value per treatment group [1, 5]","Average ECAR value per treatment group [1, 6]","Average ECAR value per treatment group [1, 7]","Average ECAR value per treatment group [1, 8]","Average ECAR value per treatment group [1, 9]","Average ECAR value per treatment group [1, 10]","Average ECAR value per treatment group [1, 11]","Average ECAR value per treatment group [1, 12]","Average ECAR value per treatment group [1, 13]","Average ECAR value per treatment group [1, 14]","Average ECAR value per treatment group [1, 15]","Average ECAR value per treatment group [1, 16]","Average ECAR value per treatment group [1, 17]","Average ECAR value per treatment group [1, 18]","Average ECAR value per treatment group [1, 19]","Average ECAR value per treatment group [1, 20]","Average OCR value per treatment group [2, 3]","Average OCR value per treatment group [2, 4]",also measured
"OO [hydrogen peroxide, reference compound]",101.82 percentage of rate 3,100.66 percentage of rate 3,100 percentage of rate 3,48.46 percentage of rate 3,29.55 percentage of rate 3,33.64 percentage of rate 3,37.41 percentage of rate 3,28.20 percentage of rate 3,17.74 percentage of rate 3,15.41 percentage of rate 3,14.87 percentage of rate 3,13.82 percentage of rate 3,13.32 percentage of rate 3,12.78 percentage of rate 3,11.82 percentage of rate 3,11.52 percentage of rate 3,11.36 percentage of rate 3,11.57 percentage of rate 3,97.05,99.80,"effect on extracellular acidification rate (glycolysis metabolism) ([1]; 1.5 mM hydrogen peroxide by itself): substantial decrease in extracellular acidification rate; effect on OCR (oxphos metabolism) ([2]; 1.5 mM H2O2 by itself): relatively sharp decrease in OCR followed by a less rapid increase; Average OCR value per treatment group [2, 5]: 100; Average OCR value per treatment group [2, 6]: −139.75; Average OCR value per treatment group [2, 7]: −4.58; Average OCR value per treatment group [2, 8]: −6.07; Average OCR value per treatment group [2, 9]: −24.10; Average OCR value per treatment group [2, 10]: −34.10; Average OCR value per treatment group [2, 11]: −44.54; Average OCR value per treatment group [2, 12]: −53.81; Average OCR value per treatment group [2, 13]: −58.25; Average OCR value per treatment group [2, 14]: −63.85; Average OCR value per treatment group [2, 15]: −70.69; Average OCR value per treatment group [2, 16]: −73.38; Average OCR value per treatment group [2, 17]: −76.46; Average OCR value per treatment group [2, 18]: −76.97; Average OCR value per treatment group [2, 19]: −76.26; Average OCR value per treatment group [2, 20]: −76.76"
NC(=O)c1cccnc1 [niacinamide],107.35 percentage of rate 3,99.41 percentage of rate 3,100 percentage of rate 3,64.35 percentage of rate 3,33.18 percentage of rate 3,34.48 percentage of rate 3,42.19 percentage of rate 3,49.60 percentage of rate 3,55.87 percentage of rate 3,60.52 percentage of rate 3,62.89 percentage of rate 3,60.57 percentage of rate 3,57.46 percentage of rate 3,55.04 percentage of rate 3,52.85 percentage of rate 3,51.52 percentage of rate 3,49.85 percentage of rate 3,47.58 percentage of rate 3,99.16,101.76,"effect on acidification rate (glycolysis metabolism) ([1]; 0.25 mM niacinamide added by itself, no hydrogen peroxide): does not significantly affect glycolysis metabolism; effect on glycolysis metabolism in combination with hydrogen peroxide ([1]; added in combination with 1.5 mM hydrogen peroxide): appears to lessen the detrimental effect of the hydrogen peroxide on glycolysis metabolism; effect on reduction in OCR caused by hydrogen peroxide [2, 21]: appears to lessen the reduction in OCR caused by the hydrogen peroxide; Average OCR value per treatment group [2, 5]: 100; Average OCR value per treatment group [2, 6]: −21.15; Average OCR value per treatment group [2, 7]: 63.31; Average OCR value per treatment group [2, 8]: 60.15; Average OCR value per treatment group [2, 9]: 47.41; Average OCR value per treatment group [2, 10]: 38.52; Average OCR value per treatment group [2, 11]: 34.85; Average OCR value per treatment group [2, 12]: 32.39; Average OCR value per treatment group [2, 13]: 31.10; Average OCR value per treatment group [2, 14]: 32.43; Average OCR value per treatment group [2, 15]: 30.49; Average OCR value per treatment group [2, 16]: 29.48; Average OCR value per treatment group [2, 17]: 28.18; Average OCR value per treatment group [2, 18]: 26.95; Average OCR value per treatment group [2, 19]: 25.83; Average OCR value per treatment group [2, 20]: 23.41"
CC1=C(C)C(=O)C(CCC(C)(O)CCCC(C)CCCC(C)CCCC(C)C)=C(C)C1=O (stereo not drawn) [tocoquinone],107.45 percentage of rate 3,99.58 percentage of rate 3,100 percentage of rate 3,56.77 percentage of rate 3,35.13 percentage of rate 3,32.57 percentage of rate 3,32.46 percentage of rate 3,34.54 percentage of rate 3,36.55 percentage of rate 3,36.68 percentage of rate 3,35.75 percentage of rate 3,32.86 percentage of rate 3,29.78 percentage of rate 3,28.15 percentage of rate 3,28.07 percentage of rate 3,30.73 percentage of rate 3,31.49 percentage of rate 3,31.18 percentage of rate 3,101.04,101.44,"effect on reduction in OCR caused by hydrogen peroxide [2, 21]: appears to lessen the reduction in OCR caused by the hydrogen peroxide about the same or slightly less than the niacinamide; Average OCR value per treatment group [2, 5]: 100; Average OCR value per treatment group [2, 6]: −21.48; Average OCR value per treatment group [2, 7]: 64.55; Average OCR value per treatment group [2, 8]: 68.43; Average OCR value per treatment group [2, 9]: 59.47; Average OCR value per treatment group [2, 10]: 53.35; Average OCR value per treatment group [2, 11]: 49.83; Average OCR value per treatment group [2, 12]: 48.18; Average OCR value per treatment group [2, 13]: 48.82; Average OCR value per treatment group [2, 14]: 49.81; Average OCR value per treatment group [2, 15]: 47.50; Average OCR value per treatment group [2, 16]: 44.97; Average OCR value per treatment group [2, 17]: 41.00; Average OCR value per treatment group [2, 18]: 37.55; Average OCR value per treatment group [2, 19]: 32.67; Average OCR value per treatment group [2, 20]: 28.15"
